Assay results as given in ChEMBL document CHEMBL1201862, “PubChem BioAssay data set” (2004).
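Results reflect a 48-hour exposure of cells in 96-well plates to compound at five concentrations. GI50 = concentration required for 50% inhibition of growth.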 Calls of active or inactive are those of the source. Rule as the data show it: active = GI50 up to about 1.1 µM and inactive = higher.

Key:
Test in all cases: DTP human tumour cell line panel, 48 h
A549 = test system: A549
IGROV-1 = test system: IGROV-1
SF-295 = test system: SF-295
SN12C = test system: SN12C
COLO 205 = test system: COLO 205
SF-268 = test system: SF-268
SNB-19 = test system: SNB-19
SK-MEL-28 = test system: SK-MEL-28
HCT-116 = test system: HCT-116
DU-145 = test system: DU-145
M14 = test system: M14
MOLT-4 = test system: MOLT-4
TK-10 = test system: TK-10
SNB-75 = test system: SNB-75
PC-3 = test system: PC-3
EKVX = test system: EKVX
HCC 2998 = test system: HCC 2998
NCI-H226 = test system: NCI-H226

Measured: GI50

Fc1cc(-c2cc(-c3ccccc3)no2)c(Cl)cc1Cl
inactive: A549 10.3 µM | IGROV-1 12.7 µM | SF-295 22.5 µM | SN12C > 32.4 µM | COLO 205 11.3 µM | SF-268 19.4 µM | SNB-19 > 40.6 µM | SK-MEL-28 > 29.8 µM | HCT-116 13.8 µM | DU-145 > 32.3 µM | M14 23.1 µM | MOLT-4 12.4 µM | TK-10 > 34.7 µM | SNB-75 > 31.6 µM | PC-3 13.7 µM | EKVX 11.4 µM

COc1ccc(Cc2nc3cc(C(F)(F)F)ccc3n2CCCN(C)C)cc1
inactive: A549 17.3 µM | IGROV-1 28 µM | SF-295 19.7 µM | HCC 2998 3.93 µM | COLO 205 18 µM | SF-268 16.8 µM | SNB-19 27.6 µM | SK-MEL-28 18 µM | DU-145 19.2 µM | M14 14.7 µM | NCI-H226 36.1 µM | MOLT-4 2.27 µM | TK-10 20.7 µM | PC-3 22.9 µM | EKVX 23.6 µM

COc1cc(/C=C/C(=O)OCC23CC[C@@]4(C(=O)O)CCC(C)[C@H](C)C4C2=CCC2[C@@]4(C)CC[C@H](O)C(C)(C)C4CC[C@]23C)ccc1O (stereo partly drawn)
inactive: A549 7.76 µM | IGROV-1 14.5 µM | SF-295 23.8 µM | HCC 2998 54.1 µM | SN12C 8.09 µM | COLO 205 > 10 µM | SF-268 4.66 µM | SNB-19 31.2 µM | SK-MEL-28 37.8 µM | HCT-116 17.5 µM | DU-145 10.2 µM | M14 23.2 µM | NCI-H226 27.5 µM | MOLT-4 6.68 µM | TK-10 2.97 µM | PC-3 16.3 µM | EKVX 15.5 µM

c1ccc(C(=NCCC2CNc3ccccc32)c2ccccc2)cc1 (stereo not drawn)
inactive: A549 > 100 µM | IGROV-1 89.3 µM | SF-295 > 100 µM | HCC 2998 > 100 µM | COLO 205 > 100 µM | SNB-19 > 100 µM | SK-MEL-28 > 100 µM | HCT-116 > 100 µM | DU-145 > 100 µM | M14 > 100 µM | MOLT-4 > 100 µM | PC-3 > 100 µM | EKVX > 100 µM

COc1ccc(-c2cc(O)c3cccnc3n2)cc1
inactive: A549 53.7 µM | IGROV-1 26.7 µM | HCC 2998 82 µM | SN12C 36.7 µM | COLO 205 19.1 µM | SF-268 40.6 µM | SNB-19 78.5 µM | SK-MEL-28 44 µM | DU-145 64.6 µM | M14 28.3 µM | NCI-H226 45.1 µM | MOLT-4 29.3 µM | TK-10 44.4 µM | EKVX > 100 µM

COc1cc(C(c2cc(OC)c(OC)c(OC)c2)N2C(=O)CCC2C(=O)O)cc(OC)c1OC (stereo not drawn)
inactive: A549 > 100 µM | IGROV-1 > 100 µM | SF-295 > 100 µM | SN12C > 100 µM | COLO 205 > 100 µM | SF-268 > 100 µM | SNB-19 > 100 µM | SK-MEL-28 > 100 µM | HCT-116 > 100 µM | DU-145 > 100 µM | M14 > 100 µM | NCI-H226 > 100 µM | MOLT-4 > 100 µM | SNB-75 > 100 µM | PC-3 > 100 µM | EKVX > 100 µM

CCOC(=O)c1c2cccccc-2nc1Nc1cccc2c(C)ccnc12
inactive: A549 > 10 µM | IGROV-1 4.82 µM | SF-295 > 10 µM | HCC 2998 > 10 µM | SN12C > 10 µM | COLO 205 7.43 µM | SF-268 > 10 µM | SNB-19 > 10 µM | SK-MEL-28 > 10 µM | HCT-116 5.12 µM | DU-145 > 10 µM | M14 > 10 µM | NCI-H226 > 10 µM | MOLT-4 5.16 µM | TK-10 > 10 µM | PC-3 5.75 µM | EKVX > 10 µM

O=c1c2cn[nH]c2nc2scc(-c3ccc(Cl)cc3)n12
inactive: A549 > 100 µM | IGROV-1 > 100 µM | SF-295 > 100 µM | HCC 2998 > 100 µM | SN12C > 100 µM | COLO 205 > 100 µM | SF-268 > 100 µM | SNB-19 > 100 µM | SK-MEL-28 > 100 µM | HCT-116 > 100 µM | M14 > 100 µM | NCI-H226 > 100 µM | MOLT-4 > 100 µM | TK-10 > 100 µM | SNB-75 16.9 µM | PC-3 > 100 µM | EKVX > 100 µM

C/C(Cc1ccc2c(c1)OCO2)=N\N=c1\sc2ccccc2n1C
inactive: A549 > 100 µM | IGROV-1 > 100 µM | SF-295 > 100 µM | HCC 2998 > 100 µM | SN12C > 100 µM | COLO 205 > 100 µM | SF-268 > 100 µM | SNB-19 > 100 µM | SK-MEL-28 > 100 µM | HCT-116 48.5 µM | DU-145 > 100 µM | M14 > 100 µM | NCI-H226 > 100 µM | MOLT-4 78.3 µM | TK-10 > 100 µM | PC-3 97.1 µM | EKVX 24.8 µM

N#Cc1sc2c(c1O)c(=O)n(-c1ccccc1)c(=S)n2-c1ccccc1
inactive: A549 > 100 µM | IGROV-1 > 100 µM | SF-295 > 100 µM | HCC 2998 > 100 µM | SN12C > 100 µM | COLO 205 > 100 µM | SF-268 > 100 µM | SNB-19 > 100 µM | SK-MEL-28 > 100 µM | DU-145 > 100 µM | M14 > 100 µM | NCI-H226 > 100 µM | TK-10 > 100 µM | SNB-75 > 100 µM

O=C(N/N=C\c1ccc([N+](=O)[O-])cc1)Nc1ccccc1
inactive: IGROV-1 > 100 µM | SF-295 > 100 µM | SN12C > 100 µM | COLO 205 > 100 µM | SNB-19 > 100 µM | SK-MEL-28 > 100 µM | HCT-116 > 100 µM | DU-145 > 100 µM | M14 > 100 µM | NCI-H226 > 100 µM | MOLT-4 > 100 µM | TK-10 > 100 µM | SNB-75 > 100 µM | PC-3 > 100 µM

O=C1CC2[C@@H](N3CCCC3)CCC(N1Cc1ccccc1)C2(O)O (stereo partly drawn)
inactive: A549 > 100 µM | IGROV-1 > 100 µM | SF-295 > 100 µM | HCC 2998 > 100 µM | SN12C > 100 µM | COLO 205 > 100 µM | SF-268 > 100 µM | SNB-19 > 100 µM | SK-MEL-28 > 100 µM | HCT-116 > 100 µM | DU-145 > 100 µM | M14 > 100 µM | NCI-H226 > 100 µM | MOLT-4 > 100 µM | TK-10 > 100 µM | PC-3 > 100 µM | EKVX > 100 µM

COc1ccc(C2(C3c4cc(OC)c(OC)cc4CCN3C)SCCCS2)cc1O (stereo not drawn)
inactive: A549 > 100 µM | IGROV-1 > 100 µM | SF-295 71.8 µM | HCC 2998 > 100 µM | SN12C > 100 µM | COLO 205 > 100 µM | SF-268 > 100 µM | SNB-19 > 100 µM | SK-MEL-28 68.2 µM | HCT-116 67.9 µM | DU-145 > 100 µM | M14 > 100 µM | MOLT-4 26 µM | TK-10 > 100 µM | PC-3 47.1 µM | EKVX 60 µM
